Experiments:
[1] = tested on: Putamen; experiment: Drug uptake in anesthetized cynomolgus monkey brain putamen after 22.5 mins postinjection; assay type: ADME, organism-based, Macaca fascicularis; parameters: unit not given here; conditions: in vivo, 0.375 h
[2] = tested on: Pons; experiment: Drug uptake in anesthetized cynomolgus monkey brain pons after 75 mins postinjection; assay type: ADME, organism-based, Macaca fascicularis; conditions: in vivo, 1.25 h
[3] = Drug uptake in anesthetized cynomolgus monkey brain cerebellum after 225 mins postinjection; assay type: ADME, organism-based, Macaca fascicularis; conditions: in vivo, 3.75 h
[4] = Ratio of drug uptake in caudate to cerebellum in anesthetized cynomolgus monkey after 9.5 mins postinjection; assay type: ADME, organism-based, Macaca fascicularis; conditions: in vivo
[5] = Drug uptake in anesthetized cynomolgus monkey brain cerebellum after 175 mins postinjection; assay type: ADME, organism-based, Macaca fascicularis; conditions: in vivo
[6] = Ratio of drug uptake in occipital lobe to cerebellum in anesthetized cynomolgus monkey after 175 mins postinjection; assay type: ADME, organism-based, Macaca fascicularis; conditions: in vivo
[7] = Ratio of drug uptake in pons to cerebellum in anesthetized cynomolgus monkey after 105 mins postinjection; assay type: ADME, organism-based, Macaca fascicularis; conditions: in vivo, 1.75 h
[8] = tested on: Putamen; experiment: Drug uptake in anesthetized cynomolgus monkey brain putamen after 2.5 mins postinjection; assay type: ADME, organism-based, Macaca fascicularis; conditions: in vivo
[9] = tested on: Pons; experiment: Drug uptake in anesthetized cynomolgus monkey brain pons after 65 mins postinjection; assay type: ADME, organism-based, Macaca fascicularis; conditions: in vivo
[10] = Drug uptake in anesthetized cynomolgus monkey brain cerebellum after 215 mins postinjection; assay type: ADME, organism-based, Macaca fascicularis; conditions: in vivo
[11] = tested on: Pons; experiment: Drug uptake in anesthetized cynomolgus monkey brain pons after 105 mins postinjection; assay type: ADME, organism-based, Macaca fascicularis; conditions: in vivo, 1.75 h
[12] = tested on: Midbrain; experiment: Drug uptake in anesthetized cynomolgus monkey brain midbrain after 135 mins postinjection; assay type: ADME, organism-based, Macaca fascicularis; conditions: in vivo, 2.25 h
[13] = tested on: Pons; experiment: Drug uptake in anesthetized cynomolgus monkey brain pons after 2.5 mins postinjection; assay type: ADME, organism-based, Macaca fascicularis; conditions: in vivo
[14] = tested on: Putamen; experiment: Drug uptake in anesthetized cynomolgus monkey brain putamen after 85 mins postinjection; assay type: ADME, organism-based, Macaca fascicularis; parameters: unit not given here; conditions: in vivo
[15] = tested on: Thalamus; experiment: Drug uptake in anesthetized cynomolgus monkey brain thalamus after 95 mins postinjection; assay type: ADME, organism-based, Macaca fascicularis; parameters: unit not given here; conditions: in vivo
[16] = tested on: Caudate; experiment: Drug uptake in anesthetized cynomolgus monkey brain caudate after 145 mins postinjection; assay type: ADME, organism-based, Macaca fascicularis, Caudate nucleus; conditions: in vivo
[17] = tested on: Thalamus; experiment: Drug uptake in anesthetized cynomolgus monkey brain thalamus after 135 mins postinjection; assay type: ADME, organism-based, Macaca fascicularis; parameters: unit not given here; conditions: in vivo, 2.25 h
[18] = tested on: Putamen; experiment: Drug uptake in anesthetized cynomolgus monkey brain putamen after 15.5 mins postinjection; assay type: ADME, organism-based, Macaca fascicularis; parameters: unit not given here; conditions: in vivo
[19] = tested on: Medulla; experiment: Drug uptake in anesthetized cynomolgus monkey brain medulla after 115 mins postinjection; assay type: ADME, organism-based, Macaca fascicularis; conditions: in vivo
[20] = tested on: Caudate; experiment: Drug uptake in anesthetized cynomolgus monkey brain caudate after 85 mins postinjection; assay type: ADME, organism-based, Macaca fascicularis, Caudate nucleus; conditions: in vivo
[21] = Ratio of drug uptake in putamen to cerebellum in anesthetized cynomolgus monkey after 9.5 mins postinjection; assay type: ADME, organism-based, Macaca fascicularis; conditions: in vivo
[22] = tested on: Caudate; experiment: Drug uptake in anesthetized cynomolgus monkey brain caudate after 18.5 mins postinjection; assay type: ADME, organism-based, Macaca fascicularis, Caudate nucleus; conditions: in vivo
[23] = tested on: Putamen; experiment: Drug uptake in anesthetized cynomolgus monkey brain putamen after 65 mins postinjection; assay type: ADME, organism-based, Macaca fascicularis; parameters: unit not given here; conditions: in vivo
[24] = tested on: Caudate; experiment: Drug uptake in anesthetized cynomolgus monkey brain caudate after 35 mins postinjection; assay type: ADME, organism-based, Macaca fascicularis, Caudate nucleus; conditions: in vivo
[25] = tested on: Caudate; experiment: Drug uptake in anesthetized cynomolgus monkey brain caudate after 135 mins postinjection; assay type: ADME, organism-based, Macaca fascicularis, Caudate nucleus; conditions: in vivo, 2.25 h
[26] = Ratio of drug uptake in medulla to cerebellum in anesthetized cynomolgus monkey after 85 mins postinjection; assay type: ADME, organism-based, Macaca fascicularis; conditions: in vivo
[27] = tested on: Medulla; experiment: Drug uptake in anesthetized cynomolgus monkey brain medulla after 145 mins postinjection; assay type: ADME, organism-based, Macaca fascicularis; conditions: in vivo
[28] = Ratio of drug uptake in midbrain to cerebellum in anesthetized cynomolgus monkey after 22.5 mins postinjection; assay type: ADME, organism-based, Macaca fascicularis; conditions: in vivo, 0.375 h
[29] = tested on: Caudate; experiment: Drug uptake in anesthetized cynomolgus monkey brain caudate after 1.5 mins postinjection; assay type: ADME, organism-based, Macaca fascicularis, Caudate nucleus; conditions: in vivo, 0.025 h
[30] = tested on: Caudate; experiment: Drug uptake in anesthetized cynomolgus monkey brain caudate after 55 mins postinjection; assay type: ADME, organism-based, Macaca fascicularis, Caudate nucleus; conditions: in vivo
[31] = tested on: Caudate; experiment: Drug uptake in anesthetized cynomolgus monkey brain caudate after 12.5 mins postinjection; assay type: ADME, organism-based, Macaca fascicularis, Caudate nucleus; conditions: in vivo
[32] = Drug uptake in anesthetized cynomolgus monkey brain occipital lobe after 155 mins postinjection; assay type: ADME, organism-based, Macaca fascicularis; conditions: in vivo
[33] = Ratio of drug uptake in midbrain to cerebellum in anesthetized cynomolgus monkey after 125 mins postinjection; assay type: ADME, organism-based, Macaca fascicularis; conditions: in vivo
[34] = tested on: Putamen; experiment: Drug uptake in anesthetized cynomolgus monkey brain putamen after 135 mins postinjection; assay type: ADME, organism-based, Macaca fascicularis; conditions: in vivo, 2.25 h
[35] = Drug uptake in anesthetized cynomolgus monkey brain cerebellum after 95 mins postinjection; assay type: ADME, organism-based, Macaca fascicularis; conditions: in vivo
[36] = tested on: Pons; experiment: Drug uptake in anesthetized cynomolgus monkey brain pons after 175 mins postinjection; assay type: ADME, organism-based, Macaca fascicularis; conditions: in vivo
[37] = tested on: Midbrain; experiment: Drug uptake in anesthetized cynomolgus monkey brain midbrain after 45 mins postinjection; assay type: ADME, organism-based, Macaca fascicularis; parameters: unit not given here; conditions: in vivo, 0.75 h
[38] = tested on: Thalamus; experiment: Drug uptake in anesthetized cynomolgus monkey brain thalamus after 27.5 mins postinjection; assay type: ADME, organism-based, Macaca fascicularis; parameters: unit not given here; conditions: in vivo
[39] = Drug uptake in anesthetized cynomolgus monkey brain cerebellum after 22.5 mins postinjection; assay type: ADME, organism-based, Macaca fascicularis; conditions: in vivo, 0.375 h
[40] = tested on: Pons; experiment: Drug uptake in anesthetized cynomolgus monkey brain pons after 12.5 mins postinjection; assay type: ADME, organism-based, Macaca fascicularis; conditions: in vivo
[41] = tested on: Putamen; experiment: Drug uptake in anesthetized cynomolgus monkey brain putamen after 45 mins postinjection; assay type: ADME, organism-based, Macaca fascicularis; parameters: unit not given here; conditions: in vivo, 0.75 h
[42] = Ratio of drug uptake in occipital lobe to cerebellum in anesthetized cynomolgus monkey after 18.5 mins postinjection; assay type: ADME, organism-based, Macaca fascicularis; conditions: in vivo
[43] = tested on: Thalamus; experiment: Drug uptake in anesthetized cynomolgus monkey brain thalamus after 215 mins postinjection; assay type: ADME, organism-based, Macaca fascicularis; parameters: unit not given here; conditions: in vivo
[44] = Drug uptake in anesthetized cynomolgus monkey brain cerebellum after 1.5 mins postinjection; assay type: ADME, organism-based, Macaca fascicularis; conditions: in vivo, 0.025 h
[45] = tested on: Midbrain; experiment: Drug uptake in anesthetized cynomolgus monkey brain midbrain after 15.5 mins postinjection; assay type: ADME, organism-based, Macaca fascicularis; parameters: unit not given here; conditions: in vivo
[46] = Ratio of drug uptake in frontal lobe to cerebellum in anesthetized cynomolgus monkey after 75 mins postinjection; assay type: ADME, organism-based, Macaca fascicularis; conditions: in vivo, 1.25 h
[47] = tested on: Midbrain; experiment: Drug uptake in anesthetized cynomolgus monkey brain midbrain after 225 mins postinjection; assay type: ADME, organism-based, Macaca fascicularis; conditions: in vivo, 3.75 h
[48] = Drug uptake in anesthetized cynomolgus monkey brain frontal lobe after 155 mins postinjection; assay type: ADME, organism-based, Macaca fascicularis; conditions: in vivo
[49] = Drug uptake in anesthetized cynomolgus monkey brain frontal lobe after 15.5 mins postinjection; assay type: ADME, organism-based, Macaca fascicularis; conditions: in vivo
[50] = Ratio of drug uptake in midbrain to cerebellum in anesthetized cynomolgus monkey after 235 mins postinjection; assay type: ADME, organism-based, Macaca fascicularis; conditions: in vivo
[51] = Ratio of drug uptake in medulla to cerebellum in anesthetized cynomolgus monkey after 1.5 mins postinjection; assay type: ADME, organism-based, Macaca fascicularis; conditions: in vivo, 0.025 h
[52] = Drug uptake in anesthetized cynomolgus monkey brain occipital lobe after 75 mins postinjection; assay type: ADME, organism-based, Macaca fascicularis; conditions: in vivo, 1.25 h
[53] = Drug uptake in anesthetized cynomolgus monkey brain cerebellum after 75 mins postinjection; assay type: ADME, organism-based, Macaca fascicularis; conditions: in vivo, 1.25 h
[54] = Ratio of drug uptake in caudate to cerebellum in anesthetized cynomolgus monkey after 0.5 mins postinjection; assay type: ADME, organism-based, Macaca fascicularis; conditions: in vivo
[55] = Drug uptake in anesthetized cynomolgus monkey brain occipital lobe after 135 mins postinjection; assay type: ADME, organism-based, Macaca fascicularis; conditions: in vivo, 2.25 h
[56] = Ratio of drug uptake in caudate to cerebellum in anesthetized cynomolgus monkey after 18.5 mins postinjection; assay type: ADME, organism-based, Macaca fascicularis; conditions: in vivo
[57] = Drug uptake in anesthetized cynomolgus monkey brain occipital lobe after 165 mins postinjection; assay type: ADME, organism-based, Macaca fascicularis; conditions: in vivo, 2.75 h
[58] = Ratio of drug uptake in caudate to cerebellum in anesthetized cynomolgus monkey after 135 mins postinjection; assay type: ADME, organism-based, Macaca fascicularis; conditions: in vivo, 2.25 h
[59] = Drug uptake in anesthetized cynomolgus monkey brain occipital lobe after 4.5 mins postinjection; assay type: ADME, organism-based, Macaca fascicularis; conditions: in vivo, 0.075 h
[60] = Drug uptake in anesthetized cynomolgus monkey brain occipital lobe after 55 mins postinjection; assay type: ADME, organism-based, Macaca fascicularis; conditions: in vivo

O=C(OCC[18F])C1C2CCC(CC1c1cccc(/C=C\I)c1)N2 (configuration not stated)
Drug uptake [1]: 3.96 | Drug uptake [2]: 3.21 | Drug uptake [3]: 1.26 | Ratio [4]: 0.7 | Drug uptake [5]: 1.57 | Ratio [6]: 1 | Ratio [7]: 1.3 | Drug uptake [8]: 0.44 | Drug uptake [9]: 3.2 | Drug uptake [10]: 1.4 | Drug uptake [11]: 3.01 | Drug uptake [12]: 3.97 | Drug uptake [13]: 0.44 | Drug uptake [14]: 4.16 | Drug uptake [15]: 3.91 | Drug uptake [16]: 2.75 | Drug uptake [17]: 3.33 | Drug uptake [18]: 3.61 | Drug uptake [19]: 3.43 | Drug uptake [20]: 3.53 | Ratio [21]: 0.9 | Drug uptake [22]: 3.07 | Drug uptake [23]: 4.36 | Drug uptake [24]: 3.54 | Drug uptake [25]: 2.87 | Ratio [26]: 1.3 | Drug uptake [27]: 3.04 | Ratio [28]: 1.1 | Drug uptake [29]: 0.08 | Drug uptake [30]: 3.72 | Drug uptake [31]: 2.74 | Drug uptake [32]: 1.63 | Ratio [33]: 2 | Drug uptake [34]: 3.44 | Drug uptake [35]: 2.61 | Drug uptake [36]: 2.36 | Drug uptake [37]: 4.9 | Drug uptake [38]: 4.02 | Drug uptake [39]: 4.02 | Drug uptake [40]: 2.58 | Drug uptake [41]: 4.41 | Ratio [42]: 0.7 | Drug uptake [43]: 2.38 | Drug uptake [44]: 0.11 | Drug uptake [45]: 4.07 | Ratio [46]: 0.9 | Drug uptake [47]: 2.99

O=C(OCCC[18F])C1C2CCC(CC1c1cccc(/C=C\Br)c1)N2 (configuration not stated)
Drug uptake [1]: 5.81 | Drug uptake [2]: 4.67 | Drug uptake [3]: 2.03 | Ratio [4]: 0.7 | Drug uptake [48]: 2.65 | Drug uptake [5]: 2.45 | Ratio [6]: 1.3 | Ratio [7]: 1.3 | Drug uptake [8]: 1.34 | Drug uptake [49]: 3.38 | Drug uptake [9]: 4.93 | Drug uptake [10]: 2.1 | Drug uptake [11]: 4.38 | Drug uptake [12]: 5.36 | Drug uptake [13]: 0.9 | Drug uptake [14]: 5.54 | Drug uptake [15]: 5.16 | Drug uptake [16]: 4.38 | Drug uptake [17]: 4.58 | Drug uptake [18]: 5.53 | Drug uptake [19]: 5.07 | Drug uptake [20]: 5.23 | Ratio [50]: 2.3 | Ratio [21]: 0.9 | Drug uptake [22]: 4.53 | Drug uptake [23]: 5.78 | Drug uptake [24]: 5.13 | Drug uptake [25]: 4.43 | Ratio [26]: 1.4 | Ratio [51]: 0.9 | Drug uptake [27]: 4.91 | Ratio [28]: 1 | Drug uptake [29]: 0.31 | Drug uptake [30]: 5.31 | Drug uptake [31]: 4.23 | Drug uptake [32]: 3.27 | Drug uptake [52]: 4.29 | Ratio [33]: 1.8 | Drug uptake [34]: 4.74 | Drug uptake [35]: 3.81 | Drug uptake [53]: 4.02 | Drug uptake [36]: 3.78 | Ratio [54]: 0.9 | Drug uptake [55]: 3.57 | Ratio [56]: 0.7 | Drug uptake [37]: 6.06 | Drug uptake [57]: 3.22 | Drug uptake [38]: 5.08 | Drug uptake [39]: 5.9 | Drug uptake [40]: 4.51 | Drug uptake [41]: 6.05 | Ratio [42]: 0.7 | Drug uptake [43]: 3.62 | Ratio [58]: 1.5 | Drug uptake [59]: 2.44 | Drug uptake [60]: 4.59 | Drug uptake [44]: 0.48 | Drug uptake [45]: 5.7 | Ratio [46]: 0.9 | Drug uptake [47]: 4.29
